Molecular target: T1, fatty acid amide hydrolase (FAAH) (Rattus norvegicus, UniProt P97612)
T1 sequence (P97612 1-579): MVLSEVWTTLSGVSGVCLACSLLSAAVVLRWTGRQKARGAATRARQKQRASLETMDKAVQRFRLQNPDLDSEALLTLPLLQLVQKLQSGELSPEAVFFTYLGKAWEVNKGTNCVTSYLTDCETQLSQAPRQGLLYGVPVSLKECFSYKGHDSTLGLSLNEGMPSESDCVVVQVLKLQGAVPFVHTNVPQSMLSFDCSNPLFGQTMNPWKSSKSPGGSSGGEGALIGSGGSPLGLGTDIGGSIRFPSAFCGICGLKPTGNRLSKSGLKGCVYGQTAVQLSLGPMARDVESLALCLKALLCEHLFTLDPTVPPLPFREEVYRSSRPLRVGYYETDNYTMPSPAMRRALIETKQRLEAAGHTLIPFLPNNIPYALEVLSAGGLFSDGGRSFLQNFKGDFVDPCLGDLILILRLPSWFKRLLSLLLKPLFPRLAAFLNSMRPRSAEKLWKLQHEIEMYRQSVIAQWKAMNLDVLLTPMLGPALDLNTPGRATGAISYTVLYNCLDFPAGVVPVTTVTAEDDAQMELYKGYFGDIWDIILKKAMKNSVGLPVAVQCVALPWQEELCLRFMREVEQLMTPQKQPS
Test: Fatty acid amide hydrolase activity assay
Assay type: biochemical, Sprague-Dawley rats
Conditions: hippocampus membranes

CCCCC/C=C\C/C=C\C/C=C\C/C=C\CCCC(=O)NCCO [anandamide, N-arachidonylethanolamide]
Vmax (maximal hydrolytic activity of FAAH) (CON animals): 619.4 +/- 56.9 pmol/mg protein
Vmax (maximal hydrolytic activity of FAAH) (VEx animals): 556.7 +/- 99.4 pmol/mg protein

Reference: paper PMC2847038 (Hippocampus, 2010)
